Legend:
[1] = especially in its phosphate salt form
[2] = drug substance without MCC
[3] = drug substance without excipients
[4] = especially in its phosphate salt form; remark: listed apart in the source

## N#Cc1ccc([C@H]2CCc3cncn32)c(F)c1 [compound of formula (1), 4-[(5R)-6,7-dihydro-5H-pyrrolo[1,2-c]imidazol-5-yl]-3-fluorobenzonitrile]
[1]
  drug substance bulk density: 0.1 to 0.3 g/mL
[2]
  primary particle size: ca. 4 micron
[3]
  flowability, ffc (poorly flowable): 1.1
[4]
  hygroscopicity: hygroscopic
